Results: paper PMC11858854, “In Vitro and In Vivo Assessment of Pharmacokinetic Profile of Peramivir in the Context of Inhalation Therapy” (Pharmaceuticals, 2025)

Legend:
[1] = Tissue distribution study in rats; format: in vivo; conditions: rat
Procedure: Tissue distribution characteristics were studied following different deliveries of i.v. 3 mg/kg, i.t. 0.3 mg/kg, and i.t. 3 mg/kg in rats. The rats were euthanized at 5 min, 30 min, 1 h, 4 h, 12 h, and 24 h after administration. Blood was collected by puncture of the fundus venous plexus, and bronchoalveolar lavage was performed to obtain bronchoalveolar lavage (BAL) fluid samples, and then the main tissues were obtained by dissection. All the tissues were thoroughly rinsed in ice physiological saline, then weighed and stored at −40 °C for analysis.
Whole blood was placed in EP tubes containing sodium heparin, and plasma was extracted by centrifugation at 4 °C, 5000× g for 10 min. […] Drug concentrations in the samples were determined using the LC-MS/MS method and drug concentrations in the BAL were converted to drug concentrations in epithelial lining fluid (ELF) using the urea nitrogen correction method.
The apparent volume of ELF in BAL fluid was determined by the urea dilution method described by Rennard. The estimated concentration of drugs in ELF was calculated as follows:CELF = CBAL × (UPlasma/UBAL)(1) where CBAL is the measured drug concentration in BAL fluid and UPlasma and UBAL are the measured concentrations of urea nitrogen in plasma and BAL fluid, respectively.
The Kp of each tissue was calculated as follows:Kp = AUC(0–t, tissue)/AUC(0–t, plasma)(2)

human OCTN1 = target: T1, human OCTN1 (Homo sapiens, UniProt Q9H015); test: Uptake study, MDCK cells overexpressing OCTN1; format: in vitro ADME
T1 construct: Huidi Jiang, Zhejiang University; host or cells: MDCK (MDCK-OCTN1); control MDCK-MOCK
T1 sequence (Q9H015 1-551): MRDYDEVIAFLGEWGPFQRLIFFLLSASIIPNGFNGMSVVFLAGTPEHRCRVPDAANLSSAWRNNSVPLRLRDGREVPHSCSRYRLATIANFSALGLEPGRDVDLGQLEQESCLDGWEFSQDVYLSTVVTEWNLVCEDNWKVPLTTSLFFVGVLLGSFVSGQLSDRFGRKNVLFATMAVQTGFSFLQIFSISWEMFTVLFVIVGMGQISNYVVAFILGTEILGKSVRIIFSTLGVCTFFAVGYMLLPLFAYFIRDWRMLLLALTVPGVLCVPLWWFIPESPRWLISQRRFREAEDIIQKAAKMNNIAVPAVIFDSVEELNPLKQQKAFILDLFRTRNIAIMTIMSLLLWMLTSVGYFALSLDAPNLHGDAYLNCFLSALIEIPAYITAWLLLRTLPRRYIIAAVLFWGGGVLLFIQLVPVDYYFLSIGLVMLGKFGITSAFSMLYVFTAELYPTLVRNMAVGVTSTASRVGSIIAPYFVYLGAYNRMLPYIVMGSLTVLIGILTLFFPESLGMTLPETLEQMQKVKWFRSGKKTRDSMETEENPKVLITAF
Procedure: (§1) All cells (HEK293-MOCK, HEK293-OCT1, HEK293-OCT2, MDCK-MOCK, MDCK-OCTN1, and MDCK-OCTN2) were cultured in DMEM medium supplemented with 10% FBS and PS (100 U/mL), at 37 °C in a humidified 5% CO2 incubator. Cells were seeded on 24-well plates at a density of 1 × 10^4 cells/well. For the uptake assay, the DMEM media were removed, and the cells were washed with pre-warmed Hank’s buffer three times (1 mL/well). Subsequent addition of inhibitor-free/inhibitor-containing buffer was pre-incubated for 30 min at 37 °C prior to the initiation of the uptake experiment. After the pre-incubating buffer was removed, 200 μL of pre-warmed test drugs solution (Hank’s buffer containing 10 µM and 50 µM peramivir) or a mixture of test drugs and inhibitor was added into each well, and the plates were incubated at 37 °C for 5 min. At the end of incubation, cells were washed and lysed as described above. The cell lysate was collected and stored at −40 °C for LC-MS/MS analysis and protein measurement. The negative control (MOCK cells) and positive control were included simultaneously.

human OCTN2 = target: T2, human OCTN2 (Homo sapiens, UniProt O76082); test: Uptake study, MDCK cells overexpressing OCTN2; format: in vitro ADME
T2 construct: Huidi Jiang, Zhejiang University; host or cells: MDCK (MDCK-OCTN2); control MDCK-MOCK
T2 sequence (O76082 1-557): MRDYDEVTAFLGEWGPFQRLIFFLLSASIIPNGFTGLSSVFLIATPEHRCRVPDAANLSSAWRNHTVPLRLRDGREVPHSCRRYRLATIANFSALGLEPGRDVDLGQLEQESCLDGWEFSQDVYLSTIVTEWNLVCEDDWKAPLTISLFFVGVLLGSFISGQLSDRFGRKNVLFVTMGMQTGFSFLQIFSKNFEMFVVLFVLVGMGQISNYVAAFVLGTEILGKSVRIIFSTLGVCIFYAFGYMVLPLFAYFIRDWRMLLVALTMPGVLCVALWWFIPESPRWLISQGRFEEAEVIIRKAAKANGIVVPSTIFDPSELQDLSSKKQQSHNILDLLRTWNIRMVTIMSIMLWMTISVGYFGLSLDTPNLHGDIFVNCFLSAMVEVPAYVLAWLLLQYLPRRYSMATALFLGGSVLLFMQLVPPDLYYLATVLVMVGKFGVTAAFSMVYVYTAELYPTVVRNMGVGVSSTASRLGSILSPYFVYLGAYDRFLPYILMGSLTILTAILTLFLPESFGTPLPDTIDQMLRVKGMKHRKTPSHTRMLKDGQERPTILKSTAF
Procedure: as §1

Caco-2 cell model = system: Caco-2 cell model; set-up: method as in PMID 28000173; conditions: Caco-2, 10 μM; cited from earlier work
human MDR1 (P-gp) = human MDR1 (P-gp) (Homo sapiens, UniProt P08183); test: Permeability assay, LLC-PK1-MDR1 cells overexpressing P-gp
Procedure: When the cell transport system was mature in culture, experiments were performed. […] When assessing permeability in basolateral to apical (B-A) direction, 100 μL of pre-warmed Buffer B and 600 μL of pre-warmed test solutions were added to the apical and basolateral compartments, respectively. The Transwells® were placed in an incubator at 37 °C and 5% CO2 for a duration of 2 h. At the end of the incubation period, the samples in the apical and basolateral sides were collected separately and were briefly kept at a temperature of −40 °C for LC-MS/MS analysis. […] The cells were transferred to Transwell® plates (Corning, NY, USA) at a density of 2 × 10^4 cells/well with 200 μL of cell suspension per well, while 850 μL of complete medium was added to the basolateral chamber. […] The samples were collected separately and were briefly kept at a temperature of −40 °C for LC-MS/MS analysis.

[2] = LLC-PK1-MDR1, 2 μM, Mean ± SD, n = 3

Chain of human MDR1 (P-gp) (P08183 whole entry): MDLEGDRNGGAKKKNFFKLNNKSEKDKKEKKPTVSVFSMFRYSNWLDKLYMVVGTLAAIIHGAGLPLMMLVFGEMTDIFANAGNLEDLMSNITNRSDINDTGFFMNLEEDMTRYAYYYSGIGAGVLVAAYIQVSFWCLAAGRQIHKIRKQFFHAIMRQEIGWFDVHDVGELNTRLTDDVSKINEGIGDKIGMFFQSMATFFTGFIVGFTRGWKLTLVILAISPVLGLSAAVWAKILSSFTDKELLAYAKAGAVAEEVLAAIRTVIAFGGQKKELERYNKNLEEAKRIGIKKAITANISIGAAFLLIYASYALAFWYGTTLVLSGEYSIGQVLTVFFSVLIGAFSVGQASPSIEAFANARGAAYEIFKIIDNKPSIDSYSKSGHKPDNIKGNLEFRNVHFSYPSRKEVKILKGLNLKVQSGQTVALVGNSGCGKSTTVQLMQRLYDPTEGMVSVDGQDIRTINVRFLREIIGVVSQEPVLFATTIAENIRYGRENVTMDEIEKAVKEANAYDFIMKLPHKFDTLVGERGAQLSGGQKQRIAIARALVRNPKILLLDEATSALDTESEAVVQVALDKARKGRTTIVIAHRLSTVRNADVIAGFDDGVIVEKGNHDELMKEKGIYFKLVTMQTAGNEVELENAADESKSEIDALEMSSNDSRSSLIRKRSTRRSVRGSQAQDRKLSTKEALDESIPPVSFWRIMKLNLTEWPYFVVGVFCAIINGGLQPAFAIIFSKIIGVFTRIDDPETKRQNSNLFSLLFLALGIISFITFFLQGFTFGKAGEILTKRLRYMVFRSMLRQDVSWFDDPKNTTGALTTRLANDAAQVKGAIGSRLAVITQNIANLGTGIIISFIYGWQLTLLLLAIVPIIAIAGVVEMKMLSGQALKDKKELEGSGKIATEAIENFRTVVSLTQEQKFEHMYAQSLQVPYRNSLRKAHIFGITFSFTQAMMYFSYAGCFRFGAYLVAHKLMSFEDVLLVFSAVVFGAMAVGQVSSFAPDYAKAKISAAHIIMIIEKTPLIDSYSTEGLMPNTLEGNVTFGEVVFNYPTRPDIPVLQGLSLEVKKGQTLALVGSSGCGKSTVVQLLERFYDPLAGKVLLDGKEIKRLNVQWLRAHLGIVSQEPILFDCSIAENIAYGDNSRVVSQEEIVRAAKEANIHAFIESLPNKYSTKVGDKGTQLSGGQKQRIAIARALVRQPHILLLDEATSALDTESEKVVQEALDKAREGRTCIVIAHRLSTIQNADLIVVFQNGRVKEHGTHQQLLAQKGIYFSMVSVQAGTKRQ

Compound: CCC(CC)[C@H](NC(C)=O)[C@@H]1[C@H](O)[C@@H](C(=O)O)C[C@H]1N=C(N)N [Peramivir]
- exposure in alveolar epithelial lining fluid after inhalation relative to equivalent i.v. dose [1]: exceeding 370 times
- tissue–plasma partition coefficient, Kp ([1]; intravenous, all tissues except renal and alveolar epithelial lining): < 1
- OCTN1 substrate status (human OCTN1; MDCK-OCTN1): does not conclusively establish peramivir as a substrate for OCTN1
- transporter-mediated uptake ratio (UR value) (human OCTN1; MDCK-OCTN1, 50 μM): 3.19
- inhibition ratio (IR value) (human OCTN1; MDCK-OCTN1, 50 μM, inhibitor quinidine (500 μM)): 40.22%
- OCTN2 substrate status (human OCTN2; MDCK-OCTN2): confirming peramivir as a substrate for the OCTN2 transporter
- transporter-mediated uptake ratio (UR value) (human OCTN2; MDCK-OCTN2, 50 μM): 41.62
- inhibition ratio (IR value) (human OCTN2; MDCK-OCTN2, 50 μM, inhibitor L-carnitine (200 μM)): 65.69%
- Papp (Caco-2 cell model): 3.29 ± 0.739 × 10^−7 cm·s^−1
- Papp A-B (human MDR1 (P-gp); [2]): BLQ
- Papp B-A (human MDR1 (P-gp); [2]): 0.23 ± 0.03 ×10−6 cm/s
- P-gp transporter substrate status (human MDR1 (P-gp); Papp(B→A) LLC-PK1-MDR1 vs LLC-PK1-MOCK): not a substrate of the P-gp transporter
